One assay has as its target human Factor XIa (Homo sapiens (Human), UniProt P03951). Nature of the assay: Factor XIa Assay. The conditions noted are these: purified human Factor XIa 40 pM, Z-Gly-Pro-Arg-AFC 100 μM, pH 7.4; read-out: FXIa Ki. The assay is classed as biochemical. Put shortly:
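Purified human FXIa (40 pM final) hydrolysing fluorogenic Z-Gly-Pro-Arg-AFC (100 μM) in 50 mM HEPES pH 7.4, 150 mM NaCl, 5 mM CaCl2, 0.1% PEG 8000, at room temperature or 37° C. Initial velocities measured after enzyme–inhibitor equilibration; Ki from Vo/Vi versus [I], assuming competitive inhibition.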

For a further assay, the target named is Human plasma kallikrein (Homo sapiens (Human), UniProt P03952). As to the kind of experiment: Kallikrein Assay. The assay is classed as biochemical. The conditions noted are these: purified Human plasma kallikrein 0.5 nM, Acetyl-K-P-R-AFC, pH 7.4; Ki from IC50 by Cheng Prusoff. The protocol:
The effectiveness of a compound of the present invention as an inhibitor of Kallikrein can be determined using a relevant purified serine protease, and an appropriate synthetic substrate. The rate of hydrolysis of the chromogenic or fluorogenic substrate by the relevant serine protease was measured both in the absence and presence of compounds of the present invention. Assays were conducted at room temperature or at 37° C. […] A decrease in the rate of fluorescence change in the presence of inhibitor is indicative of enzyme inhibition. Such methods are known to one skilled in the art. The results of this assay are expressed as the inhibitory constant, Ki.
Kallikrein determinations were made in 50 mM HEPES buffer at pH 7.4 containing 150 mM NaCl, 5 mM CaCl2, and 0.1% PEG 8000 (polyethylene glycol; Fisher Scientific). Determinations were made using purified Human plasma kallikrein at a final concentration of 0.5 nM (Enzyme Research Laboratories) and the synthetic substrate, Acetyl-K-P-R-AFC (Sigma #C6608) at a concentration of […].
Times required to achieve equilibration between enzyme and inhibitor were determined in control experiments. The reactions were performed under linear progress curve conditions and fluorescence increase measured at 405 Ex/510 Em nm. […] IC50 was determined by inflection point from a four parameter logistic curve fit. Ki was calculated using the Cheng Prusoff equation, Ki=IC50/(1+([S]/Km)).

Our source for the Ki values is US10093683B2, “Factor XIa inhibitors” (Merck Sharp & Dohme Corp., priority 2014, dated 2018).

By Ki is commonly meant a measure of affinity in units of concentration, obtained from inhibition or displacement.

Chain of Human plasma kallikrein (P03952 391-638): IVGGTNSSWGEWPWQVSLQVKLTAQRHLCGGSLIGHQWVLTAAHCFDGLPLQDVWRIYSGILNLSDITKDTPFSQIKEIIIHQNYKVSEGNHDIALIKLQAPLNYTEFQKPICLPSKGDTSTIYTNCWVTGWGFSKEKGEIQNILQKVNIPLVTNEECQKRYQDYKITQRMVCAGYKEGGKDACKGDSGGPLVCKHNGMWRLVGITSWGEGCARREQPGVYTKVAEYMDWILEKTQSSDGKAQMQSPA
Chain of Human plasma kallikrein (P03952 20-390 partner): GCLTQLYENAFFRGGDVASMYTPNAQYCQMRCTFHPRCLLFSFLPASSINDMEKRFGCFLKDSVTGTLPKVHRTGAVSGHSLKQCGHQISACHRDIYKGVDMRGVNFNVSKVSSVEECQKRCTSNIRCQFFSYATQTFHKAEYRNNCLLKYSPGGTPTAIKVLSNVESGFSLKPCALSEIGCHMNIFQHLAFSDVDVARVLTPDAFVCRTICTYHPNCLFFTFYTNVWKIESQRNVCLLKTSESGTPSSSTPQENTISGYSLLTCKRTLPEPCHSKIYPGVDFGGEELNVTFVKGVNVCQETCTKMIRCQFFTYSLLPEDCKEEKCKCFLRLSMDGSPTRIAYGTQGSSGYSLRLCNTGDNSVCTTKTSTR
Chain of human Factor XIa (P03951 388-625): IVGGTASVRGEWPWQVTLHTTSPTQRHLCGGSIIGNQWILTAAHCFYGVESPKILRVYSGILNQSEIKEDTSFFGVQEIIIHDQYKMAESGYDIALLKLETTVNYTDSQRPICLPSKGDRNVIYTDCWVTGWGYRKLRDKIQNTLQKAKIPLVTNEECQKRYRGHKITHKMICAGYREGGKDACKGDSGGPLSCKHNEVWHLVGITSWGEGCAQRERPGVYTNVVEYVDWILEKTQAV
Chain of human Factor XIa (P03951 19-387 partner): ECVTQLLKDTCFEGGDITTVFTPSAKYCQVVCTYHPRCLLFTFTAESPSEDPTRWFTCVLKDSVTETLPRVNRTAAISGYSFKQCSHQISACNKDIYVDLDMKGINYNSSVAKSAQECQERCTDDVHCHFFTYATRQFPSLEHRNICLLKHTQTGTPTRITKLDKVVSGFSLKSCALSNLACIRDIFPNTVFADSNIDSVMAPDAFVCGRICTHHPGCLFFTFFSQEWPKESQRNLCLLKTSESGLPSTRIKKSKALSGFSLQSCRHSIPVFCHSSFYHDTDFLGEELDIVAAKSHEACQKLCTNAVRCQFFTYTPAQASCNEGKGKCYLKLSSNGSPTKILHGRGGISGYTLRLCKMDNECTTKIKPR

In the case of `COC(=O)Nc1ccc(C(=O)N[C@@H](Cc2ccc(F)c(F)c2)C(=O)N2CCC3(C2)OC(=O)Nc2ccc(Cl)cc23)cc1` (stereo partly drawn) [Example 27, methyl (4-(((2S)-1-(6-chloro-2-oxo-1,2-dihydrospiro[benzo[d][1,3]oxazine-4,3′-pyrrolidin]-1′-yl)-3-(3,4-difluorophenyl)-1-oxopropan-2-yl)carbamoyl)phenyl)carbamate], the Ki at human Factor XIa came to 0.0143 µM; on Human plasma kallikrein it was 0.0326 µM.

Consider `COC(=O)Nc1ccc(C(=O)N[C@@H](Cc2cncn2C)C(=O)N2CCC3(C2)OC(=O)Nc2ccc(Cl)cc23)cc1` (stereo partly drawn) [Example 30, methyl (4-(((2S)-1-(6-chloro-2-oxo-1,2-dihydrospiro[benzo[d][1,3]oxazine-4,3′-pyrrolidin]-1′-yl)-3-(1-methyl-1H-imidazol-5-yl)-1-oxopropan-2-yl)carbamoyl)phenyl)carbamate], for which the Ki on human Factor XIa is 0.0176 µM; on Human plasma kallikrein, 0.037 µM.

With `COC(=O)Nc1ccc(C(=O)N[C@@H](Cn2cccn2)C(=O)N2CCC3(C2)OC(=O)Nc2ccc(Cl)cc23)cc1` (stereo partly drawn) [Example 31, methyl (4-(((2S)-1-(6-chloro-2-oxo-1,2-dihydrospiro[benzo[d][1,3]oxazine-4,3′-pyrrolidin]-1′-yl)-1-oxo-3-(1H-pyrazol-1-yl)propan-2-yl)carbamoyl)phenyl)carbamate], the Ki was determined as 0.026 µM at human Factor XIa and 0.0773 µM on Human plasma kallikrein.

In the case of `COC(=O)Nc1ccc(C(=O)N[C@@H](Cc2ccsc2)C(=O)N2CCC3(C2)OC(=O)Nc2ccc(Cl)cc23)cc1` (stereo partly drawn) [Example 32, methyl (4-(((2S)-1-(6-chloro-2-oxo-1,2-dihydrospiro[benzo[d][1,3]oxazine-4,3′-pyrrolidin]-1′-yl)-1-oxo-3-(thiophen-3-yl)propan-2-yl)carbamoyl)phenyl)carbamate], the inhibitory constant (Ki) was 0.016 µM on human Factor XIa and 0.0422 µM on Human plasma kallikrein.

Turning to `COC(=O)Nc1ccc(C(=O)N[C@@H](Cc2ccc(O)cc2)C(=O)N2CCC3(C2)OC(=O)Nc2ccc(Cl)cc23)cc1` (stereo partly drawn) [Example 35, methyl (4-(((2S)-1-(6-chloro-2-oxo-1,2-dihydrospiro[benzo[d][1,3]oxazine-4,3′-pyrrolidin]-1′-yl)-3-(4-hydroxyphenyl)-1-oxopropan-2-yl)carbamoyl)phenyl)carbamate], the Ki on human Factor XIa was 0.00328 µM; at Human plasma kallikrein, 0.0246 µM.

As to `COCC[C@H](NC(=O)c1ccc(NC(=O)OC)cc1)C(=O)N1CCC[C@@]2(C1)OC(=O)Nc1ccc(Cl)cc12` [Example 37, methyl (4-(((S)-1-((R)-6-chloro-2-oxo-1,2-dihydrospiro[benzo[d][1,3]oxazine-4,3′-piperidin]-1′-yl)-4-methoxy-1-oxobutan-2-yl)carbamoyl)phenyl)carbamate], the Ki was 0.00921 µM at human Factor XIa and 0.00268 µM at Human plasma kallikrein.

As to `COC(=O)Nc1ccc(C(=O)N[C@@H](CO)C(=O)N2CCC[C@@]3(C2)OC(=O)Nc2ccc(Cl)cc23)cc1` [Example 38, methyl (4-(((S)-1-((R)-6-chloro-2-oxo-1,2-dihydrospiro[benzo[d][1,3]oxazine-4,3′-piperidin]-1′-yl)-3-hydroxy-1-oxopropan-2-yl)carbamoyl)phenyl)carbamate], the figures for the inhibition constant Ki on human Factor XIa and on Human plasma kallikrein were 0.0499 µM and 0.00945 µM, respectively.

Turning to `COC(=O)Nc1ccc(C(=O)N[C@@H](Cc2ccc(C(=O)c3ccccc3)cc2)C(=O)N2CCC3(C2)OC(=O)Nc2ccc(Cl)cc23)cc1` (stereo partly drawn) [Example 39, methyl (4-(((2S)-3-(4-benzoylphenyl)-1-(6-chloro-2-oxo-1,2-dihydrospiro[benzo[d][1,3]oxazine-4,3′-pyrrolidin]-1′-yl)-1-oxopropan-2-yl)carbamoyl)phenyl)carbamate], the inhibition constant (Ki) at human Factor XIa turned out to be 0.0393 µM; on Human plasma kallikrein, 0.0866 µM.

As to `COC(=O)Nc1ccc(C(=O)N[C@@H](Cc2cscn2)C(=O)N2CCC3(C2)OC(=O)Nc2ccc(Cl)cc23)cc1` (stereo partly drawn) [Example 40, methyl (4-(((2S)-1-(6-chloro-2-oxo-1,2-dihydrospiro[benzo[d][1,3]oxazine-4,3′-pyrrolidin]-1′-yl)-1-oxo-3-(thiazol-4-yl)propan-2-yl)carbamoyl)phenyl)carbamate], the values for the inhibitory constant (Ki) at human Factor XIa and at Human plasma kallikrein were 0.0524 µM and 0.116 µM, respectively.

In the case of `COC(=O)Nc1ccc(C(=O)N[C@@H](Cc2sccc2F)C(=O)N2CCC3(C2)OC(=O)Nc2ccc(Cl)cc23)cc1` (stereo partly drawn) [Example 43, methyl (4-(((2S)-1-(6-chloro-2-oxo-1,2-dihydrospiro[benzo[d][1,3]oxazine-4,3′-pyrrolidin]-1′-yl)-3-(3-fluorothiophen-2-yl)-1-oxopropan-2-yl)carbamoyl)phenyl)carbamate], the Ki at human Factor XIa stood at 0.0177 µM; on Human plasma kallikrein it was 0.0425 µM.

As to `COC(=O)Nc1ccc(C(=O)N[C@@H](Cc2ccc(OC3CCCC3)cc2)C(=O)N2CCC3(C2)OC(=O)Nc2ccc(Cl)cc23)cc1` (stereo partly drawn) [Example 44, methyl (4-(((2S)-1-(6-chloro-2-oxo-1,2-dihydrospiro[benzo[d][1,3]oxazine-4,3′-pyrrolidin]-1′-yl)-3-(4-(cyclopentyloxy)phenyl)-1-oxopropan-2-yl)carbamoyl)phenyl)carbamate], the Ki on human Factor XIa was 0.07 µM; on Human plasma kallikrein, less than 0.0013 µM.

`COC(=O)Nc1ccc(C(=O)N[C@@H](Cc2ccc(C#N)cc2)C(=O)N2CCC[C@@]3(C2)OC(=O)Nc2ccc(Cl)cc23)cc1` [Example 45, methyl (4-(((S)-1-((R)-6-chloro-2-oxo-1,2-dihydrospiro[benzo[d][1,3]oxazine-4,3′-piperidin]-1′-yl)-3-(4-cyanophenyl)-1-oxopropan-2-yl)carbamoyl)phenyl)carbamate]: the Ki at human Factor XIa is 0.00555 µM; on Human plasma kallikrein it was less than 0.0013 µM.

With `COC(=O)Nc1ccc(C(=O)N[C@@H](Cc2ccc(C(N)=O)cc2)C(=O)N2CCC[C@@]3(C2)OC(=O)Nc2ccc(Cl)cc23)cc1` [Example 47, methyl (4-(((S)-3-(4-carbamoylphenyl)-1-((R)-6-chloro-2-oxo-1,2-dihydrospiro[benzo[d][1,3]oxazine-4,3′-piperidin]-1′-yl)-1-oxopropan-2-yl)carbamoyl)phenyl)carbamate], the figures for the Ki at human Factor XIa and at Human plasma kallikrein were 0.00055 µM and less than 0.0013 µM, respectively.

As for `COC(=O)Nc1ccc(C(=O)N[C@@H](Cc2ccc(NC(C)=O)cc2)C(=O)N2CCC[C@@]3(C2)OC(=O)Nc2ccc(Cl)cc23)cc1` [Example 48, methyl (4-(((S)-3-(4-acetamidophenyl)-1-((R)-6-chloro-2-oxo-1,2-dihydrospiro[benzo[d][1,3]oxazine-4,3′-piperidin]-1′-yl)-1-oxopropan-2-yl)carbamoyl)phenyl)carbamate], the figures for the inhibition constant (Ki) on human Factor XIa and on Human plasma kallikrein were 0.00201 µM and 0.00127 µM, respectively.

As for `COC(=O)Nc1ccc(C(=O)N[C@@H](Cc2ccc3ccccc3c2)C(=O)N2CCC3(C2)OC(=O)Nc2ccc(Cl)cc23)cc1` (stereo partly drawn) [Example 50, methyl (4-(((2S)-1-(6-chloro-2-oxo-1,2-dihydrospiro[benzo[d][1,3]oxazine-4,3′-pyrrolidin]-1′-yl)-3-(naphthalen-2-yl)-1-oxopropan-2-yl)carbamoyl)phenyl)carbamate], the figures for the inhibitory constant (Ki) at human Factor XIa and on Human plasma kallikrein were 0.0337 µM and 0.227 µM, respectively.

`COC(=O)Nc1ccc(C(=O)N[C@@H](CCc2ccccc2)C(=O)N2CCC3(C2)OC(=O)Nc2ccc(Cl)cc23)cc1` (stereo partly drawn) [Example 52, methyl (4-(((2S)-1-(6-chloro-2-oxo-1,2-dihydrospiro[benzo[d][1,3]oxazine-4,3′-pyrrolidin]-1′-yl)-1-oxo-4-phenylbutan-2-yl)carbamoyl)phenyl)carbamate]: the Ki was found to be 0.0176 µM at human Factor XIa and 0.0928 µM on Human plasma kallikrein.
